Source: patent US8232240B2, “Inhibitors of enveloped virus infectivity” (priority 2005, dated 2012)
Entries after “also recorded” stand apart in the source; their conditions may differ. Where a SMILES comes first, the peptide text is derived from it. The star is where a group is joined. Cbz = O=C(OCc1ccccc1)*; CHN2 = [N-]=[N+]=C*; tBu = CC(C)(C)*

Columns and labels:
[1] = system: Marburg (Musoke strain) virus; format: cell-based
EboV Zaire GP = format: cell-based
Marburg-GP = format: cell-based, Marburg virus
EboV-Zaire (1995 strain) = format: cell-based
Reston GPΔMuc = format: cell-based, Ebola Reston
Cote d'Ivoire GPΔMuc = format: cell-based, Ebola Cote d'Ivoire
CatB = format: cell-based
CatL = target: T1, CatL (Chlorocebus aethiops, UniProt Q9GKL8); format: cell-based
T1 construct: CatB and Cathepsin L (CatL) enzymatic activities in CA074-treated cells; endogenous in cells; host or cells: Vero cells
T1 sequence (Q9GKL8 114-333): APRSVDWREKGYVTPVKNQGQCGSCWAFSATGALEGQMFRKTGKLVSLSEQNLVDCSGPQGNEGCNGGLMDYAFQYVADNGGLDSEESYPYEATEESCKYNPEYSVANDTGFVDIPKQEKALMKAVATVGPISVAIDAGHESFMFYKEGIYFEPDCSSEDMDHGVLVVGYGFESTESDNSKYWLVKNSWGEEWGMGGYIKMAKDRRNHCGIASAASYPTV

Sudan GPΔMuc = format: cell-based, Ebola Sudan
VSV G = format: cell-based, vesicular stomatitis virus (VSV)
[2] = system: cell-cell fusion mediated by Nipah virus glycoproteins F and G; format: cell-based; conditions: 24 hours

Compound | inhibition of growth of Marburg virus on Vero cells [1] | EboV GP-dependent infection of Vero cells (EboV Zaire GP) | block of infection, Ebola Zaire (EboV Zaire GP) | reduction of infection in the absence of detectable CatB activity (EboV Zaire GP) | infectivity of Marburg (Marburg-GP) | expression of cell-associated GP1 (EboV-Zaire (1995 strain)) | infectivity of Reston (Reston GPΔMuc) | block of infection, Cote d'Ivoire (Cote d'Ivoire GPΔMuc) | approximate level of cellular CatB activity (B %) (CatB) | approximate level of cellular CatL activity (L %) (CatL) | inhibition of infection, Sudan (Sudan GPΔMuc) | VSV G-dependent infection (VSV G) | cell-cell fusion by Nipah virus glycoproteins (syncytia) [2] | infection, Zaire (EboV Zaire GP) | infection, Marburg (Marburg-GP) | infection, Reston (Reston GPΔMuc) | infection, Cote d'Ivoire (Cote d'Ivoire GPΔMuc) | inhibition of CatB activity (CatB) | inhibition of CatL activity (CatL) | infection, Sudan (Sudan GPΔMuc)
CCCNC(=O)[C@H]1O[C@@H]1C(=O)N[C@H](C(=O)N1CCC[C@H]1C(=O)O)[C@@H](C)CC [CA074] | not each alone | inhibited infection | ~99% | ~99.9% | unaffected | markedly reduced | unaffected | ~99% | ~10% | ~100% | 90% | Neither compound inhibited | – | – | – | – | – | – | – | –
CC(C)(C)Oc1ccc(C[C@H](NC(=O)[C@H](Cc2ccccc2)NC(=O)OCc2ccccc2)C(=O)C=[N+]=[N-])cc1 [FYdmk, Z-Phe-Tyr-(tBu)-diazomethylketone] (Cbz-Phe-Tyr(tBu)-CHN2) | not each alone | inhibited infection | – | – | – | – | – | – | ~10% | ~0% | – | Neither compound inhibited | dramatically reduces cell-cell fusion; also recorded: inhibits cell-cell fusion | blocked | blocked | blocked | blocked | can inhibit | can inhibit | blocked
